Key:
[1] = target: T1, CA14 (anchor binder nanobody); test: ITC; […] Å crystal structure of the CA14-CBD-DB21 ternary complex; format: binding
T1 construct: nanobody CA14, tag-free; CA14 alone in ITC

[2] = target: T2, TIR1 (Arabidopsis thaliana, UniProt Q570C0); test: ITC; BLI and AlphaScreen with IAA7 degron; format: binding
T2 construct: TIR1-ASK1 co-expressed complex; with ASK1
T2 sequence (Q39255 whole entry): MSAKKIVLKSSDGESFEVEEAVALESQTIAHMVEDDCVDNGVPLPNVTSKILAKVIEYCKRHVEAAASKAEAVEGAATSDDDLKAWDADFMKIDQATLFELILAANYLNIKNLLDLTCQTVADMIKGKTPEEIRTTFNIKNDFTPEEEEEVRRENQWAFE
T2 sequence (Q570C0 whole entry): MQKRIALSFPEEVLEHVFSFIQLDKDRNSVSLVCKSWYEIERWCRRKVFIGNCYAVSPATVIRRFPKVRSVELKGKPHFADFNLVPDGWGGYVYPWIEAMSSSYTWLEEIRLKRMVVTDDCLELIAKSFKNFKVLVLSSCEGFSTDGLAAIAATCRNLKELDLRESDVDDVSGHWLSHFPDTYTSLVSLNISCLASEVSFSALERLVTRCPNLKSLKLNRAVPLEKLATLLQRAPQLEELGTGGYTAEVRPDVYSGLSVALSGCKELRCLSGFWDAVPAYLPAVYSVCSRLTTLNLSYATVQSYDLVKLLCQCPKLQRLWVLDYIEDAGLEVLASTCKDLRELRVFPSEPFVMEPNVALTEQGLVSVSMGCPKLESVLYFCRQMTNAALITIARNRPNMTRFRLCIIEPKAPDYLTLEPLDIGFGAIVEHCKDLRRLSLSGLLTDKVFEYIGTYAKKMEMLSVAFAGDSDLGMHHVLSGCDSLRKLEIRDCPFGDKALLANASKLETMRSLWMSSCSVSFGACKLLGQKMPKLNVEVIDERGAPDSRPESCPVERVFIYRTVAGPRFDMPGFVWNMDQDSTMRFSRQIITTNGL

SMILES: C=C(C)[C@@H]1CCC(C)=C[C@H]1c1c(O)cc(CCCCC)cc1O [CBD, cannabidiol]
- Kd [1]: 2.2 µM

SMILES: O=C(O)Cc1c[nH]c2ccccc12 [auxin]
- Kd [2]: 13.4 µM

— article PMC8831599, “Defining molecular glues with a dual-nanobody cannabidiol sensor” (Nature Communications, 2022)
